# From PubChem BioAssay (NCI)
#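 All cell lines were grown in 96-well plates and treated with compound for 48 hours. TGI is the concentration that stops growth completely.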
# Experiments:
# Experiment in all cases: NCI tumour cell line growth inhibition, 48 h
# 786-0 renal = test system: 786-0 renal
# A498 renal = test system: A498 renal
# A549 NSCLC = test system: A549 NSCLC
# ACHN renal = test system: ACHN renal
# BT-549 breast = test system: BT-549 breast
# CAKI-1 renal = test system: CAKI-1 renal
# CCRF-CEM leukemia = test system: CCRF-CEM leukemia
# COLO 205 colon = test system: COLO 205 colon
# DLD-1 colon = test system: DLD-1 colon
# DMS 114 small cell lung = test system: DMS 114 small cell lung
# DMS 273 small cell lung = test system: DMS 273 small cell lung
# DU-145 prostate = test system: DU-145 prostate
# EKVX NSCLC = test system: EKVX NSCLC
# HCC-2998 colon = test system: HCC-2998 colon
# HCT-116 colon = test system: HCT-116 colon
# HCT-15 colon = test system: HCT-15 colon
# HL-60(TB) leukemia = test system: HL-60(TB) leukemia
# HOP-18 NSCLC = test system: HOP-18 NSCLC
# HOP-62 NSCLC = test system: HOP-62 NSCLC
# HOP-92 NSCLC = test system: HOP-92 NSCLC
# HS 578T breast = test system: HS 578T breast
# HT29 colon = test system: HT29 colon
# IGROV1 ovarian = test system: IGROV1 ovarian
# K-562 leukemia = test system: K-562 leukemia
# KM12 colon = test system: KM12 colon
# KM20L2 colon = test system: KM20L2 colon
# LOX IMVI melanoma = test system: LOX IMVI melanoma
# LXFL 529 NSCLC = test system: LXFL 529 NSCLC
# M14 melanoma = test system: M14 melanoma
# M19-MEL melanoma = test system: M19-MEL melanoma
# MALME-3M melanoma = test system: MALME-3M melanoma
# MCF7 breast = test system: MCF7 breast
# MDA-MB-231 breast = test system: MDA-MB-231 breast
# MDA-MB-435 = test system: MDA-MB-435
# MDA-N = test system: MDA-N
# MOLT-4 leukemia = test system: MOLT-4 leukemia
# NCI-H226 lung = test system: NCI-H226 lung
# NCI-H23 lung = test system: NCI-H23 lung
# NCI-H460 lung = test system: NCI-H460 lung
# NCI-H522 lung = test system: NCI-H522 lung
# NCI/ADR-RES ovarian = test system: NCI/ADR-RES ovarian
# OVCAR-3 ovarian = test system: OVCAR-3 ovarian
# OVCAR-4 ovarian = test system: OVCAR-4 ovarian
# OVCAR-5 ovarian = test system: OVCAR-5 ovarian
# OVCAR-8 ovarian = test system: OVCAR-8 ovarian
# PC-3 prostate = test system: PC-3 prostate
# RPMI-8226 leukemia = test system: RPMI-8226 leukemia
# RXF 393 renal = test system: RXF 393 renal
# RXF-631 renal = test system: RXF-631 renal
# SF-268 CNS = test system: SF-268 CNS
# SF-295 CNS = test system: SF-295 CNS
# SF-539 CNS = test system: SF-539 CNS
# SK-MEL-2 melanoma = test system: SK-MEL-2 melanoma
# SK-MEL-28 melanoma = test system: SK-MEL-28 melanoma
# SK-MEL-5 melanoma = test system: SK-MEL-5 melanoma
# SK-OV-3 ovarian = test system: SK-OV-3 ovarian
# SN12C renal = test system: SN12C renal
# SNB-19 CNS = test system: SNB-19 CNS
# SNB-75 CNS = test system: SNB-75 CNS
# SNB-78 CNS = test system: SNB-78 CNS
# SR leukemia = test system: SR leukemia
# SW-620 colon = test system: SW-620 colon
# T-47D breast = test system: T-47D breast
# TK-10 renal = test system: TK-10 renal
# U251 CNS = test system: U251 CNS
# UACC-257 melanoma = test system: UACC-257 melanoma
# UACC-62 melanoma = test system: UACC-62 melanoma
# UO-31 renal = test system: UO-31 renal
# XF 498 CNS = test system: XF 498 CNS
# P388 leukemia = test system: P388 leukemia
# P388/ADR leukemia = test system: P388/ADR leukemia
# SN12K1 renal = test system: SN12K1 renal
structure (smiles),measurement,setting,value
CC(=O)N(O)CCCCCNC(=O)CCC(=O)N(O)CCCCCNC(=O)CCC(=O)N(O)CCCCCN,TGI,786-0 renal,> 100 µM
same,TGI,A498 renal,> 100 µM
same,TGI,A549 NSCLC,> 100 µM
same,TGI,ACHN renal,> 100 µM
same,TGI,BT-549 breast,> 100 µM
same,TGI,CAKI-1 renal,> 100 µM
same,TGI,CCRF-CEM leukemia,> 54.4 µM
same,TGI,COLO 205 colon,> 100 µM
same,TGI,DLD-1 colon,> 100 µM
same,TGI,DMS 114 small cell lung,> 100 µM
same,TGI,DMS 273 small cell lung,> 100 µM
same,TGI,DU-145 prostate,> 60.1 µM
same,TGI,EKVX NSCLC,> 100 µM
same,TGI,HCC-2998 colon,> 100 µM
same,TGI,HCT-116 colon,> 100 µM
same,TGI,HCT-15 colon,> 100 µM
same,TGI,HL-60(TB) leukemia,> 76.9 µM
same,TGI,HOP-18 NSCLC,83.2 µM
same,TGI,HOP-62 NSCLC,> 100 µM
same,TGI,HOP-92 NSCLC,> 100 µM
same,TGI,HS 578T breast,> 100 µM
same,TGI,HT29 colon,> 100 µM
same,TGI,IGROV1 ovarian,> 100 µM
same,TGI,K-562 leukemia,> 100 µM
same,TGI,KM12 colon,> 100 µM
same,TGI,KM20L2 colon,> 100 µM
same,TGI,LOX IMVI melanoma,> 100 µM
same,TGI,LXFL 529 NSCLC,> 100 µM
same,TGI,M14 melanoma,> 100 µM
same,TGI,M19-MEL melanoma,> 100 µM
same,TGI,MALME-3M melanoma,> 100 µM
same,TGI,MCF7 breast,> 100 µM
same,TGI,MDA-MB-231 breast,> 100 µM
same,TGI,MDA-MB-435,> 100 µM
same,TGI,MDA-N,> 100 µM
same,TGI,MOLT-4 leukemia,> 82.8 µM
same,TGI,NCI-H226 lung,> 92.3 µM
same,TGI,NCI-H23 lung,> 100 µM
same,TGI,NCI-H460 lung,> 54.9 µM
same,TGI,NCI-H522 lung,> 100 µM
same,TGI,NCI/ADR-RES ovarian,> 100 µM
same,TGI,OVCAR-3 ovarian,> 100 µM
same,TGI,OVCAR-4 ovarian,> 100 µM
same,TGI,OVCAR-5 ovarian,84 µM
same,TGI,OVCAR-8 ovarian,> 100 µM
same,TGI,PC-3 prostate,> 100 µM
same,TGI,RPMI-8226 leukemia,> 100 µM
same,TGI,RXF 393 renal,> 100 µM
same,TGI,RXF-631 renal,> 100 µM
same,TGI,SF-268 CNS,> 100 µM
same,TGI,SF-295 CNS,> 100 µM
same,TGI,SF-539 CNS,> 92.3 µM
same,TGI,SK-MEL-2 melanoma,> 100 µM
same,TGI,SK-MEL-28 melanoma,> 100 µM
same,TGI,SK-MEL-5 melanoma,> 85.5 µM
same,TGI,SK-OV-3 ovarian,> 100 µM
same,TGI,SN12C renal,> 100 µM
same,TGI,SNB-19 CNS,> 100 µM
same,TGI,SNB-75 CNS,> 100 µM
same,TGI,SNB-78 CNS,> 100 µM
same,TGI,SR leukemia,> 77.5 µM
same,TGI,SW-620 colon,> 100 µM
same,TGI,T-47D breast,> 100 µM
same,TGI,TK-10 renal,> 100 µM
same,TGI,U251 CNS,> 100 µM
same,TGI,UACC-257 melanoma,> 100 µM
same,TGI,UACC-62 melanoma,> 100 µM
same,TGI,UO-31 renal,> 100 µM
same,TGI,XF 498 CNS,> 100 µM
COc1cc2c(oc(=O)c3cc(C)cc(OC)c32)c2c(C3OC(C)C(O)C(C)(O)C3O)ccc(O)c12 (stereo unspecified),TGI,A498 renal,1.29 µM
same,TGI,A549 NSCLC,7.4 µM
same,TGI,CAKI-1 renal,2.06 µM
same,TGI,CCRF-CEM leukemia,2.41 µM
same,TGI,COLO 205 colon,1.41 µM
same,TGI,DLD-1 colon,4.56 µM
same,TGI,DMS 114 small cell lung,1.17 µM
same,TGI,DMS 273 small cell lung,1.27 µM
same,TGI,EKVX NSCLC,2.31 µM
same,TGI,HCC-2998 colon,1.76 µM
same,TGI,HCT-116 colon,6.12 µM
same,TGI,HCT-15 colon,3.65 µM
same,TGI,HL-60(TB) leukemia,0.251 µM
same,TGI,HOP-18 NSCLC,5.3 µM
same,TGI,HOP-62 NSCLC,1.08 µM
same,TGI,HOP-92 NSCLC,4.32 µM
same,TGI,HT29 colon,4.81 µM
same,TGI,IGROV1 ovarian,5.59 µM
same,TGI,K-562 leukemia,3.73 µM
same,TGI,KM12 colon,5.41 µM
same,TGI,KM20L2 colon,5.04 µM
same,TGI,LOX IMVI melanoma,1.71 µM
same,TGI,M19-MEL melanoma,1.64 µM
same,TGI,MALME-3M melanoma,1.45 µM
same,TGI,MCF7 breast,3.99 µM
same,TGI,MOLT-4 leukemia,0.875 µM
same,TGI,NCI-H226 lung,1.21 µM
same,TGI,NCI-H23 lung,2.16 µM
same,TGI,NCI-H460 lung,0.763 µM
same,TGI,NCI-H522 lung,1.73 µM
same,TGI,NCI/ADR-RES ovarian,2.51 µM
same,TGI,OVCAR-3 ovarian,2.51 µM
same,TGI,OVCAR-4 ovarian,2.14 µM
same,TGI,OVCAR-5 ovarian,2.89 µM
same,TGI,OVCAR-8 ovarian,1.99 µM
same,TGI,P388 leukemia,2.03 µM
same,TGI,P388/ADR leukemia,3.41 µM
same,TGI,RPMI-8226 leukemia,1.92 µM
same,TGI,RXF 393 renal,1.18 µM
same,TGI,SF-268 CNS,2.1 µM
same,TGI,SF-295 CNS,1.29 µM
same,TGI,SF-539 CNS,1.73 µM
same,TGI,SK-MEL-2 melanoma,1.56 µM
same,TGI,SK-MEL-28 melanoma,1.85 µM
same,TGI,SK-MEL-5 melanoma,1.79 µM
same,TGI,SK-OV-3 ovarian,4.45 µM
same,TGI,SN12C renal,2.39 µM
same,TGI,SN12K1 renal,1.51 µM
same,TGI,SNB-19 CNS,4.63 µM
same,TGI,SNB-75 CNS,1.46 µM
same,TGI,SNB-78 CNS,5.32 µM
same,TGI,SW-620 colon,7.74 µM
same,TGI,U251 CNS,2.42 µM
same,TGI,UACC-257 melanoma,1.62 µM
same,TGI,UACC-62 melanoma,1.13 µM
same,TGI,UO-31 renal,3.19 µM
same,TGI,XF 498 CNS,1.15 µM
